± gives the uncertainty stated by the source.
Assay: xn = mol fraction of the nth substance listed

CC(C)CCCC(C)CCCC(C)CCCC(C)C (stereo not drawn) + Cc1ccccc1
viscosity [mPa·s], 100 kPa
Details | 298.15 K | 313.15 K
x2 = 0.4932 | 2.255 ± 0.21 | 1.658 ± 0.16
x2 = 0.7449 | 1.263 ± 0.24 | 0.974 ± 0.095

Cc1ccc(C)cc1 + Cc1ccccc1
Details | viscosity [mPa·s]
293.15 K, 101.33 kPa, x2 = 0.1516 | 0.636 ± 0.0057
293.15 K, 101.33 kPa, x2 = 0.3137 | 0.624 ± 0.0056
293.15 K, 101.33 kPa, x2 = 0.6003 | 0.6 ± 0.0054
293.15 K, 101.33 kPa, x2 = 0.8519 | 0.588 ± 0.0053
298.15 K, 101 kPa, x1 = 0.1 | 0.5595 ± 0.0072
298.15 K, 101 kPa, x1 = 0.2 | 0.565 ± 0.0072
298.15 K, 101 kPa, x1 = 0.3 | 0.5703 ± 0.0073
298.15 K, 101 kPa, x1 = 0.4 | 0.5756 ± 0.0073
298.15 K, 101 kPa, x1 = 0.5 | 0.5807 ± 0.0074
298.15 K, 101 kPa, x1 = 0.6 | 0.5857 ± 0.0075
298.15 K, 101 kPa, x1 = 0.7 | 0.5907 ± 0.0075
298.15 K, 101 kPa, x1 = 0.8 | 0.5955 ± 0.0076
298.15 K, 101 kPa, x1 = 0.9 | 0.6001 ± 0.0076
303.15 K, 101.33 kPa, x2 = 0.1516 | 0.56 ± 0.0051
303.15 K, 101.33 kPa, x2 = 0.3137 | 0.547 ± 0.005
303.15 K, 101.33 kPa, x2 = 0.6003 | 0.532 ± 0.0048
303.15 K, 101.33 kPa, x2 = 0.8519 | 0.526 ± 0.0048
313.15 K, 101.33 kPa, x2 = 0.1516 | 0.509 ± 0.0047
313.15 K, 101.33 kPa, x2 = 0.3137 | 0.5 ± 0.0046
313.15 K, 101.33 kPa, x2 = 0.6003 | 0.491 ± 0.0045
313.15 K, 101.33 kPa, x2 = 0.8519 | 0.47 ± 0.0044
323.15 K, 101.33 kPa, x2 = 0.1516 | 0.459 ± 0.0043
323.15 K, 101.33 kPa, x2 = 0.3137 | 0.45 ± 0.0043
323.15 K, 101.33 kPa, x2 = 0.6003 | 0.437 ± 0.0042
323.15 K, 101.33 kPa, x2 = 0.8519 | 0.423 ± 0.004

CCCCCCCCCCCCCCCCCC(=O)OC + ClC(Cl)=C(Cl)Cl
viscosity [mPa·s], 101 kPa
Details | x1 = 0.05 | x1 = 0.1 | x1 = 0.15 | x1 = 0.2 | x1 = 0.25 | x1 = 0.3
298 K | 1.41 ± 0.17 | 1.65 ± 0.2 | 1.8 ± 0.22 | 2.14 ± 0.26 | 2.62 ± 0.32 | 2.93 ± 0.35
303 K | 1.33 ± 0.16 | 1.55 ± 0.19 | 1.68 ± 0.2 | 2.01 ± 0.24 | 2.36 ± 0.28 | 2.63 ± 0.32
308 K | 1.24 ± 0.15 | 1.47 ± 0.18 | 1.58 ± 0.19 | 1.89 ± 0.23 | 2.16 ± 0.26 | 2.4 ± 0.29
313 K | 1.17 ± 0.14 | 1.39 ± 0.17 | 1.47 ± 0.18 | 1.76 ± 0.21 | 1.97 ± 0.24 | 2.2 ± 0.27

CCCCCCCCCCCCCCCCCC(=O)OC + ClC=C(Cl)Cl
viscosity [mPa·s], 101 kPa
Details | x1 = 0.05 | x1 = 0.1 | x1 = 0.15 | x1 = 0.2 | x1 = 0.25 | x1 = 0.3
298 K | 0.77 ± 0.02 | 1.04 ± 0.02 | 1.37 ± 0.03 | 1.73 ± 0.04 | 2.09 ± 0.04 | 2.61 ± 0.05
303 K | 0.74 ± 0.02 | 0.98 ± 0.02 | 1.3 ± 0.03 | 1.6 ± 0.03 | 1.9 ± 0.04 | 2.39 ± 0.05
308 K | 0.71 ± 0.02 | 0.93 ± 0.02 | 1.21 ± 0.03 | 1.5 ± 0.03 | 1.77 ± 0.04 | 2.2 ± 0.05
313 K | 0.68 ± 0.01 | 0.89 ± 0.02 | 1.14 ± 0.02 | 1.4 ± 0.03 | 1.66 ± 0.03 | 2.01 ± 0.04

O=Cc1ccccc1 + ClCCCl
viscosity [mPa·s], 101 kPa
Details | x1 = 0.3909 | x1 = 0.8163 | x1 = 0.8165 | x1 = 0.9064
293.15 K | 1.085 ± 0.015 | 1.445 ± 0.022 | – | –
303.15 K | – | – | 1.225 ± 0.018 | 1.285 ± 0.02

CC(F)F + FC(F)C(F)(F)F
viscosity [mPa·s], 101 kPa
Details | x2 = 0.248 | x2 = 0.504 | x2 = 0.758
298.15 K | 0.1447 ± 0.0033 | 0.1487 ± 0.0033 | 0.1533 ± 0.0034
313.15 K | 0.1172 ± 0.0027 | 0.1234 ± 0.0028 | 0.13 ± 0.0029

CC(F)F + FCC(F)(F)F
viscosity [mPa·s], 101 kPa
Details | x1 = 0.259 | x1 = 0.5 | x1 = 0.75
298.15 K | 0.1801 ± 0.004 | 0.1772 ± 0.0039 | 0.1647 ± 0.0036
313.15 K | 0.1504 ± 0.0034 | 0.1444 ± 0.0032 | 0.1397 ± 0.0031

O.O.O.O.O.O=S(=O)([O-])[S-].[Na+].[Na+] + N#C[S-].[K+]
101.33 kPa, x2 = 0.3
Details | viscosity [mPa·s]
294 K | 39.21 ± 0.73
298 K | 31.11 ± 0.58
303 K | 24.56 ± 0.46
308 K | 19.44 ± 0.36
313 K | 15.6 ± 0.29
318 K | 13.1 ± 0.24
323 K | 10.89 ± 0.2

O.O.O.O.O.O=S(=O)([O-])[S-].[Na+].[Na+] + N#C[S-].[Na+]
101.33 kPa, x2 = 0.3
Details | viscosity [mPa·s]
308 K | 30.26 ± 0.56
313 K | 23.84 ± 0.44
318 K | 19.42 ± 0.36
323 K | 15.54 ± 0.29

C[N+](C)(C)CCO.[Cl-] + NCCO
101 kPa
Details | viscosity [mPa·s]
293.15 K, x1 = 0.091 | 40.5 ± 1.7
293.15 K, x1 = 0.111 | 48.81 ± 2
293.15 K, x1 = 0.143 | 51.72 ± 2.1
298.15 K, x1 = 0.125 | 38.64 ± 0.44
303.15 K, x1 = 0.125 | 30.08 ± 0.34
308.15 K, x1 = 0.125 | 23.81 ± 0.27
313.15 K, x1 = 0.091 | 16.33 ± 0.68
313.15 K, x1 = 0.111 | 20.81 ± 0.87
313.15 K, x1 = 0.125 | 19.3 ± 0.2
313.15 K, x1 = 0.143 | 21.41 ± 0.89
318.15 K, x1 = 0.125 | 15.79 ± 0.18
323.15 K, x1 = 0.125 | 12.88 ± 0.15

CCCC[N+](CCCC)(CCCC)CCCC.[Cl-] + N[C@@H](CO)C(=O)O
Details | viscosity [mPa·s]
323.15 K, 101 kPa, x1 = 0.9 | 491 ± 120

NCCO.O=CO + O
viscosity [mPa·s], 101 kPa
Details | x1 = 0.0088 | x1 = 0.0186 | x2 = 0.8561 | x2 = 0.8993 | x2 = 0.9327 | x2 = 0.9591 | x2 = 0.9712
293.15 K | 1.23 ± 0.059 | 1.29 ± 0.063 | 3.936 ± 0.18 | 2.814 ± 0.14 | 2.172 ± 0.11 | 1.842 ± 0.081 | 1.482 ± 0.074
298.15 K | 1.08 ± 0.051 | 1.17 ± 0.055 | 3.51 ± 0.17 | 2.52 ± 0.12 | 1.914 ± 0.091 | 1.614 ± 0.081 | 1.35 ± 0.064
303.15 K | 0.99 ± 0.045 | 1.05 ± 0.047 | 3.12 ± 0.15 | 2.28 ± 0.1 | 1.716 ± 0.078 | 1.386 ± 0.074 | 1.23 ± 0.059
